The record followed here is patent publication US11414384B2, “P300/CBP hat inhibitors” (Constellation Pharmaceuticals, Inc., priority 2018, dated 2022).

Assay [1] deals with p300 HAT domain (residues 1287-1666) (Homo sapiens (Human), UniProt Q09472). The assay can be described thus: p300 HAT SPA assay (scintillation proximity assay, acetylation of biotinylated H3(1-21) peptide). Format: biochemical. The following applies: p300 HAT domain; average of at least 2 replicate titrations; read-out: P300 HAT SPA IC50. The method, boiled down:
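Purified p300 HAT domain reaction transferred to streptavidin plates to capture biotinylated H3(1-21) peptide, incubated 1.5 hr at RT, and read by scintillation proximity. IC50 values derived from concentration-response data.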
On the technique in general: SPA uses beads or plates that emit light when radiolabelled molecules are held near them.

A further assay has as its target full length p300 (Homo sapiens (Human), UniProt Q09472). The assay is described as follows: full length p300 SPA assay. Format: biochemical. The following applies: average of at least 2 replicate titrations, read-out: FL P300 IC50. As for the experimental part: Reactions were initiated with 12.5 μL 2 μM biotinylated H3(1-21) peptide (New England Peptide) and run for 1 hr at RT, then quenched with 20 μL stop solution (200 mM Tris pH 8.0, 200 mM EDTA, 2M NaCl, 160 μM anacardic acid). 35 μL of the reaction volume was transferred to a 384-well streptavidin FlashPlate (PerkinElmer) using a Bravo liquid handler (Velocity 11) and incubated for 1.5 hr at RT. Plates were aspirated, washed with 95 μL wash buffer (15 mM Tris pH 8.5, 0.069 μM Brij-35), aspirated, sealed, and scintillation counts read on a Topcount (PerkinElmer). Data were analyzed in Genedata to determine inhibitor IC50 values.
The full length p300 SPA assay was run following the same protocol as p300 HAT SPA assay, but used 6 nM purified full length p300 (purchased from Active Motif) in place of the purified p300-HAT domain.

In assay [2] the test system is acetylation of chromatin at H3K18 (catalyzed by p300 and CBP) in HCT-116 cells. The assay can be described thus: H3K18Ac MSD cellular assay. It is filed as cell-based. The following applies: 2 hr treatment, average of at least 2 replicate titrations. As for the experimental part: Select compounds were also evaluated in a H3K18Ac MSD cellular assay that measures the ability of compounds to inhibit the acetylation of chromatin at H3K18, a process catalyzed by p300 and CBP. In a typical experiment the p300 HAT inhibitory activity inside cells of the compounds described herein was determined in accordance with the following experimental method. 20 k HCT-116 cells per well are plated in 75 μL RPMI+10% FBS media the night before treatment. Compounds plated in DMSO at 4× final concentration are resuspended in 30 μL RPMI+10% FBS, then 25 μL is combined with corresponding wells containing cells. Treated cells are incubated for 2 hr at 37° C., then lysed in 500 μL final volume and frozen at −80° C. MSD plates (Meso Scale Discovery) are coated overnight at 4° C. with 60 μL 1:500α-total histone antibody (Millipore MAB3422) in PBS. Plates are then blocked with 5% BSA in TBST shaking at RT for 1 hr, washed, and 30 μL lysate added to each well for 2 hr shaking at RT. Plates are washed and 25 μL 1:216α-H3K18ac antibody (CST 9675) in PBS added, then incubated for 1 hr shaking at RT. Plates are washed again, then 25 μL 1:1000 Sulfo-Tag goat a-rabbit antibody (Meso Scale Discovery R32Ab-1) in PBS is added for 1 hr shaking at RT. Plates are washed once more, then 150 μL 1× Read Buffer (MSD #R92TD-3) is added to all wells and read on MSD SECTOR Imager 2400 using the conventional read setup.

Sequence of full length p300 (Q09472 whole entry): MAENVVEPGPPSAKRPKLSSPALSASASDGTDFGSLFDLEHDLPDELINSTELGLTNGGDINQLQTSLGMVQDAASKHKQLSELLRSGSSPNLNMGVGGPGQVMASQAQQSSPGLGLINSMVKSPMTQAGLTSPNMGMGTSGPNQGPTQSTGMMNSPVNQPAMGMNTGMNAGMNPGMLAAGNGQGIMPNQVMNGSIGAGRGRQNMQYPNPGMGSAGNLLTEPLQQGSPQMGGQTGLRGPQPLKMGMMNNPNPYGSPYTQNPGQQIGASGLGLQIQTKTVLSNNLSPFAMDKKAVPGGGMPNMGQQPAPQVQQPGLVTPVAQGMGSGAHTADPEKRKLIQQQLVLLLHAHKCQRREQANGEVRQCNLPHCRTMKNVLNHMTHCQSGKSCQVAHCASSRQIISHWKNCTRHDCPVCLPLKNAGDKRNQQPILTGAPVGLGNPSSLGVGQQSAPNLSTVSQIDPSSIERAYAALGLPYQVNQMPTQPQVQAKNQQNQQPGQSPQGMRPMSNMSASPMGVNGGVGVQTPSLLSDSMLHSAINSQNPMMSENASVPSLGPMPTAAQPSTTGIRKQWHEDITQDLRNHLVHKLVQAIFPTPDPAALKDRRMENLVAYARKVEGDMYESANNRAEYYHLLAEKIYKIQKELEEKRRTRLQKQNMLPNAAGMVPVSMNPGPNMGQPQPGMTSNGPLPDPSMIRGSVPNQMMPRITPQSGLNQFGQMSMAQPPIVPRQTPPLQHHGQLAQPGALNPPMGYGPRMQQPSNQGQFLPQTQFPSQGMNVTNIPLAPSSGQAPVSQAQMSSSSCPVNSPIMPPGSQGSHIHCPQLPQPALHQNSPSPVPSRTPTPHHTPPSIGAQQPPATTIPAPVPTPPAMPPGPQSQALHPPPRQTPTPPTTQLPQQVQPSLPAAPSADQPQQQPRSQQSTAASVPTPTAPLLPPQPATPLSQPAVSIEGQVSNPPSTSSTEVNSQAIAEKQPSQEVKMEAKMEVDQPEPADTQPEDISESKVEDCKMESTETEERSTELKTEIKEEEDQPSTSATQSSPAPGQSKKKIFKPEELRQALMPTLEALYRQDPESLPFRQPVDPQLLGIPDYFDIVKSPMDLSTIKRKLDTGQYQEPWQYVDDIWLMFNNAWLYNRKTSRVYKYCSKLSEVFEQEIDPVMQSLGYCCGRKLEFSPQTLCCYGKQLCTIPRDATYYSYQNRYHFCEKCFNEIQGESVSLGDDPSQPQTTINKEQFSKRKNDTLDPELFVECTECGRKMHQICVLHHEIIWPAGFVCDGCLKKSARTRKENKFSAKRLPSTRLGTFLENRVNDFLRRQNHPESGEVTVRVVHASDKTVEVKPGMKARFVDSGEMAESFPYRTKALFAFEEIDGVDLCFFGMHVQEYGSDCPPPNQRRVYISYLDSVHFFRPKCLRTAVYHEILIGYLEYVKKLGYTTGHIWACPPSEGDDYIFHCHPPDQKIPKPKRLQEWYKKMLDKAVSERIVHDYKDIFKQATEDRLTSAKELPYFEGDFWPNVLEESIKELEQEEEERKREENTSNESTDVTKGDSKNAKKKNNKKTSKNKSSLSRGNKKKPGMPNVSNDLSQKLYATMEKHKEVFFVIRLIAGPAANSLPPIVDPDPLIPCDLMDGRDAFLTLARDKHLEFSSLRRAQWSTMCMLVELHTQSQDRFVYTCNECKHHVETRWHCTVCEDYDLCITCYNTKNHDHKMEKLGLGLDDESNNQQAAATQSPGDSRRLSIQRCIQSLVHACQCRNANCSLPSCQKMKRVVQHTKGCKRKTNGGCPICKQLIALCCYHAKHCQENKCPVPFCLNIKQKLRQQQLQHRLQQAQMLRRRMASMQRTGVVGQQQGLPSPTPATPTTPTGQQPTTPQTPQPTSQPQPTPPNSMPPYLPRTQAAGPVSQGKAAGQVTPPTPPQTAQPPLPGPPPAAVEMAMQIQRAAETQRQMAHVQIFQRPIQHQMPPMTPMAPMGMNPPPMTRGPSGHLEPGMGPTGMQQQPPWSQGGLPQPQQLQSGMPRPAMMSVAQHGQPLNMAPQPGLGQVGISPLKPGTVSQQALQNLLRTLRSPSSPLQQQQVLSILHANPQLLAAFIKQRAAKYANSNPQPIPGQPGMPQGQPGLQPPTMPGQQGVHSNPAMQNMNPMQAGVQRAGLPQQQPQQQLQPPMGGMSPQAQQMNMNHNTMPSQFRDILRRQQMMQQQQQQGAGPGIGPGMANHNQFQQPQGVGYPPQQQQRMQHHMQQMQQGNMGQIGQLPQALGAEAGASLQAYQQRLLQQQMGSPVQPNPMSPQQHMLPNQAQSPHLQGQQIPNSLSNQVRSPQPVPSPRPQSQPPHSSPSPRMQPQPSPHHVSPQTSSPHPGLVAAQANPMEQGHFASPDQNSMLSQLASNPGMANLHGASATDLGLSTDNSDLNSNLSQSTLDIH
Sequence of p300 HAT domain (residues 1287-1666) (Q09472 1287-1666): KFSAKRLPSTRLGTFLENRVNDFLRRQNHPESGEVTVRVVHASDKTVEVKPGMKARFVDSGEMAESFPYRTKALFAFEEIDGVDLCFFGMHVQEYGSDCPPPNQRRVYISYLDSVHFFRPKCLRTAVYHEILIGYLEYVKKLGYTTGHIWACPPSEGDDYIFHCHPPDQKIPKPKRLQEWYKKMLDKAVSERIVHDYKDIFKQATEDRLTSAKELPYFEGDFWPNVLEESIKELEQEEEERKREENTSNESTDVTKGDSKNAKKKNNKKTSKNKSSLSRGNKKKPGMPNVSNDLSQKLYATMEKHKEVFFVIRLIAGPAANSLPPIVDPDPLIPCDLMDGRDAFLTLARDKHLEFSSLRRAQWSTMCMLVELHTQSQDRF

On to `O=C(c1c[nH]c2ccccc12)C(NCCc1ccc(Cl)cc1)c1ccccn1` (racemic) [42 Racemic, (rac)-2-((4-chlorophenethyl)amino)-1-(1H-indol-3-yl)-2-(pyridin-2-yl)ethan-1-one], for which the figures for the half-inhibitory concentration (IC50) (in assay [1]; at full length p300) were 9140 nM and 196 nM, respectively.

Regarding `O=C(c1c[nH]c2ccccc12)C(NCCc1ccc(Cl)cc1)c1ccncc1` (racemic) [44 Racemic, (rac)-2-((4-chlorophenethyl)amino)-1-(1H-indol-3-yl)-2-(pyridin-4-yl)ethan-1-one], the IC50 in assay [1] is 3330 nM; at full length p300, 120 nM.

With `NS(=O)(=O)c1ccc(CCNC(C(=O)c2c[nH]c3cccnc23)c2ccccc2)cc1` (racemic) [Example 30, (rac)-4-(2-((2-oxo-1-phenyl-2-(1H-pyrrolo[3,2-b]pyridin-3-yl)ethyl)amino)ethyl) benzenesulfonamide], the figures for the IC50 (in assay [1]; at full length p300) were 32300 nM and 732 nM, respectively.

Turning to `NS(=O)(=O)c1ccc(CCNC(C(=O)c2c[nH]c3ccncc23)c2ccccc2)cc1` (racemic) [Example 31, (rac)-4-(2-((2-oxo-1-phenyl-2-(1H-pyrrolo[3,2-c]pyridin-3-yl)ethyl)amino)ethyl) benzenesulfonamide], the IC50 was found to be 33900 nM in assay [1] and 10600 nM at full length p300.

For the molecule `COc1ccccc1CCNC(C(=O)c1c[nH]c2ccccc12)c1ccccc1` (single isomer, unassigned) [6 Isomer 2], the IC50 in assay [1] turned out to be 1830 nM; at full length p300 it was 82 nM.

On to `COc1cccc(CCNC(C(=O)c2c[nH]c3ccccc23)c2ccccc2)c1` (single isomer, unassigned) [7 Isomer 2], for which the figures for the IC50 (in assay [1]; at full length p300) were 5140 nM and 269 nM, respectively.

With `COc1ccc(CCNC(C(=O)c2c[nH]c3ccccc23)c2ccccc2)cc1` (single isomer, unassigned) [8 Isomer 2], the IC50 was 873 nM in assay [1] and 27.7 nM at full length p300.

With `O=C(c1c[nH]c2ccccc12)C(NCCc1ccccn1)c1ccccc1` (single isomer, unassigned) [9 Isomer 1], the IC50 in assay [1] was greater than 60000 nM; on full length p300, 25900 nM.

For `O=C(c1c[nH]c2ccccc12)C(NCCc1ccccn1)c1ccccc1` (single isomer, unassigned) [9 Isomer 2], the IC50 in assay [1] amounted to 33200 nM; on full length p300 it was 728 nM.

Turning to `O=C(c1c[nH]c2ccccc12)C(NCCc1cccnc1)c1ccccc1` (single isomer, unassigned) [10 Isomer 1], the IC50 in assay [1] stood at 21200 nM; on full length p300, 630 nM.

On to `O=C(c1c[nH]c2ccccc12)C(NCCc1cccnc1)c1ccccc1` (single isomer, unassigned) [10 Isomer 2], for which the IC50 worked out at 19200 nM in assay [1] and 711 nM on full length p300.

As for `O=C(c1c[nH]c2ccccc12)C(NCCc1ccncc1)c1ccccc1` (single isomer, unassigned) [11 Isomer 1], the IC50 in assay [1] was 9940 nM; on full length p300, 204 nM.

In the case of `O=C(c1c[nH]c2ccccc12)C(NCCc1ccncc1)c1ccccc1` (single isomer, unassigned) [11 Isomer 2], the IC50 in assay [1] was 7150 nM; on full length p300, 197 nM.

As for `NS(=O)(=O)c1ccc(CCNC(C(=O)c2c[nH]c3cccc(Cl)c23)c2ccccc2)cc1` (single isomer, unassigned) [12 Isomer 1], the IC50 in assay [1] is greater than 60000 nM; on full length p300 it was 8500 nM.

For the molecule `NS(=O)(=O)c1ccc(CCNC(C(=O)c2c[nH]c3cccc(Cl)c23)c2ccccc2)cc1` (single isomer, unassigned) [12 Isomer 2], the IC50 in assay [1] is greater than 60000 nM; at full length p300, 3940 nM.

For `NS(=O)(=O)c1ccc(CCNC(C(=O)c2c[nH]c3cc(Cl)ccc23)c2ccccc2)cc1` (single isomer, unassigned) [13 Isomer 1], the IC50 in assay [1] was 18100 nM; on full length p300 it was 472 nM.

Regarding `NS(=O)(=O)c1ccc(CCNC(C(=O)c2c[nH]c3cc(Cl)ccc23)c2ccccc2)cc1` (single isomer, unassigned) [13 Isomer 2], the IC50 in assay [1] came to 1620 nM; at full length p300, 144 nM.

Regarding `Cn1cc(-c2ccc3c(C(=O)C(NCCc4ccc(C(=O)O)cc4Cl)c4ccccc4)c[nH]c3c2)cn1` (single isomer, unassigned) [142 Isomer 2], the IC50 in assay [1] turned out to be 81.6 nM. For the same molecule, in assay [2] (Homo sapiens, HCT-116, 2 h), the midpoint of the response, the EC50, lay at 1200 nM.

For the molecule `COc1cccc2c(C(=O)[C@@H](NCCc3ccc(S(N)(=O)=O)cc3)c3ccccc3)c[nH]c12` (single isomer, unassigned) [144 Isomer 2], in assay [1], the IC50 amounted to 1410 nM. This molecule gave an EC50 in assay [2] (Homo sapiens, HCT-116, 2 h) of 1380 nM.

Regarding `CCNC(=O)c1ccc2c(C(=O)[C@@H](NCCc3ccc(C#N)cc3)c3ccccc3)c[nH]c2c1` (single isomer, unassigned) [146 Isomer 1], the IC50 in assay [1] came to 786 nM. Moreover, the midpoint of the response in assay [2], the EC50, lay at 401 nM.

With `CNC(=O)c1ccc2c(C(=O)C(NCCc3ccc(Cl)cc3Cl)c3ccccc3)c[nH]c2c1` (single isomer, unassigned) [151 Isomer 2], in assay [1], the IC50 was found to be 101 nM. Further, in assay [2] (Homo sapiens, HCT-116, 2 h), the EC50 was 53.5 nM.

With `N#Cc1ccc(CCNC(C(=O)c2c[nH]c3cc(C(=O)NCC(F)(F)F)ccc23)c2ccccc2)cc1` (single isomer, unassigned) [157 Isomer 2], the IC50 in assay [1] amounted to 66 nM. In assay [2] (Homo sapiens, HCT-116, 2 h), the EC50 turned out to be 36.4 nM.

In the case of `CNC(=O)CCc1ccc2c(C(=O)C(NCCc3ccc(F)cc3)c3ccccc3)c[nH]c2c1` (single isomer, unassigned) [158 Isomer 1], in assay [1], the IC50 was 1500 nM. This molecule also yielded an EC50 in assay [2] (Homo sapiens, HCT-116, 2 h) of 641 nM.

On to `CC(C)(O)CNC(=O)c1ccc2c(C(=O)C(NCCc3ccc(C#N)cc3)c3ccccc3)c[nH]c2c1` (single isomer, unassigned) [161 Isomer 2], for which the IC50 in assay [1] worked out at 95.1 nM. This molecule registered an EC50 in assay [2] (Homo sapiens, HCT-116, 2 h) of 78.1 nM.

With `CCN1CC(NC(=O)c2ccc3c(C(=O)C(NCCc4ccc(C#N)cc4)c4ccccc4)c[nH]c3c2)C1` (single isomer, unassigned) [163 Isomer 2], the IC50 in assay [1] is 41.9 nM. This molecule gave an EC50 in assay [2] (Homo sapiens, HCT-116, 2 h) greater than 1000 nM.

With `N#Cc1ccc(CCNC(C(=O)c2c[nH]c3cc(C(=O)NC4CS(=O)(=O)C4)ccc23)c2ccccc2)cc1` (single isomer, unassigned) [166 Isomer 2], in assay [1], the IC50 was determined as 28.8 nM. In addition, it took 112 nM to reach a half-maximal effect in assay [2] (Homo sapiens, HCT-116, 2 h) (EC50).

With `N#Cc1ccc(CCNC(C(=O)c2c[nH]c3cc(C(=O)NC4COC4)ccc23)c2ccccc2)cc1` (single isomer, unassigned) [174 Isomer 1], the IC50 in assay [1] stood at 965 nM. This molecule yielded a 50% effective concentration (EC50) in assay [2] greater than 1000 nM.

Turning to `N#Cc1ccc(CCNC(C(=O)c2c[nH]c3cc(C(=O)NC4COC4)ccc23)c2ccccc2)cc1` (single isomer, unassigned) [174 Isomer 2], the IC50 in assay [1] stood at 39 nM. This molecule gave an EC50 in assay [2] of 98.3 nM.

`CS(=O)(=O)CCCNC(=O)c1ccc2c(C(=O)C(NCCc3ccc(C#N)cc3)c3ccccc3)c[nH]c2c1` (single isomer, unassigned) [175 Isomer 2]: the IC50 in assay [1] amounted to 44 nM. The molecule further showed an EC50 in assay [2] (Homo sapiens, HCT-116, 2 h) of 184 nM.

For `Cn1cnc(-c2ccc3c(C(=O)[C@@H](NCCc4ccc(C(N)=O)cc4)c4ccccc4)c[nH]c3c2)c1` (single isomer, unassigned) [177 Isomer 2], the half-maximal inhibitory concentration (IC50) in assay [1] turned out to be 838 nM. For the same molecule, a half-maximal response in assay [2] (Homo sapiens, HCT-116, 2 h) (EC50) required 1270 nM.

For `Cn1cc(-c2ccc3c(C(=O)C(NCCc4ccc(C(N)=O)cc4)c4ccccc4)cnn3c2)cn1` (single isomer, unassigned) [179 Isomer 1], the IC50 in assay [1] was found to be 302 nM. Moreover, in assay [2] (Homo sapiens, HCT-116, 2 h), it took 192 nM to reach a half-maximal effect (EC50).

In the case of `Cn1cc(-c2ccc3c(C(=O)C(NCCc4ccc(C(N)=O)cc4)c4ccccc4)c[nH]c3c2)nn1` (single isomer, unassigned) [180 Isomer 2], the IC50 in assay [1] is 370 nM. In assay [2] (Homo sapiens, HCT-116, 2 h), this molecule returned an EC50 of 219 nM.

For `NC(=O)c1ccc(CCNC(C(=O)c2c[nH]c3cc(-n4ccnc4)ccc23)c2ccccc2)cc1` (single isomer, unassigned) [181 Isomer 1], the IC50 in assay [1] was 642 nM. In assay [2] (Homo sapiens, HCT-116, 2 h), this molecule yielded an EC50 of 243 nM.

In general, IC50 refers to the midpoint of a concentration-inhibition curve. What is called EC50 is the midpoint of the concentration-response curve. Low readings indicate greater potency, high ones weaker potency.
